In patent publication US20040235906A1, “Substituted amine derivatives and their use as monoamine neurotransmitter re-up-take inhibitors” (priority 2001, published 2004):
Where a name gives a salt, the structure may show the parent alone. Read-outs that look alike come from different tables or passages of the source.

Tests used:
[1] = molecular target: T1, reuptake of dopamine(DA) in synaptosomes (Rattus norvegicus, UniProt P23977); test: Inhibition of dopamine (DA) reuptake in synaptosomes; assay type: biochemical
T1 construct: in synaptosomes as described in WO 97/16451; from tissue
T1 sequence (P23977 whole entry): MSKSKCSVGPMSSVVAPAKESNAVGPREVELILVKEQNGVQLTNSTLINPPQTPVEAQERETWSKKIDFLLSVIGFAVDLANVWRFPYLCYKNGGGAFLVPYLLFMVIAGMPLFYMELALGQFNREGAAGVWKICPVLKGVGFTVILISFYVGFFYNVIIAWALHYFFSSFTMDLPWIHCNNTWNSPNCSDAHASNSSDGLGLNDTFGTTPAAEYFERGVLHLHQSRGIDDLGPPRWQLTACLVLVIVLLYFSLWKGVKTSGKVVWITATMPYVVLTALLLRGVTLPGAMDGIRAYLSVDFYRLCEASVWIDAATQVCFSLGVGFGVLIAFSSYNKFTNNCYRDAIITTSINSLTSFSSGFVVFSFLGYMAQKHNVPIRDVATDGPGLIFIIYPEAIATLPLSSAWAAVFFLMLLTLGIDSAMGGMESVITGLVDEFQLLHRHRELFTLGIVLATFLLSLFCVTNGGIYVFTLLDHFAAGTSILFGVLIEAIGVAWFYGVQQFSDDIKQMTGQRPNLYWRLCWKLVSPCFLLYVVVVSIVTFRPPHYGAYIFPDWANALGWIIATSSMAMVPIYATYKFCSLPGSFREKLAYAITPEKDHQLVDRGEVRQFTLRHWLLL
Description: (§1) A number of compounds were tested for their ability to inhibit the reuptake of the monoamine neurotransmitters dopamine(DA) noradrenaline(NA) and serotonine(5-HT) in synaptosomes as described in WO 97/16451.
(§2) The test values are given as IC50 (the concentration (μM) of the test substance which inhibits the specific binding of ^3H-DA, ^3H-NA, or ^3H-5-HT by 50%).

[2] = molecular target: T2, reuptake of serotonine(5-HT) in synaptosomes (Rattus norvegicus, UniProt P31652); test: Inhibition of serotonine (5-HT) reuptake in synaptosomes; assay type: biochemical
T2 construct: in synaptosomes as described in WO 97/16451; from tissue
T2 sequence (P31652 whole entry): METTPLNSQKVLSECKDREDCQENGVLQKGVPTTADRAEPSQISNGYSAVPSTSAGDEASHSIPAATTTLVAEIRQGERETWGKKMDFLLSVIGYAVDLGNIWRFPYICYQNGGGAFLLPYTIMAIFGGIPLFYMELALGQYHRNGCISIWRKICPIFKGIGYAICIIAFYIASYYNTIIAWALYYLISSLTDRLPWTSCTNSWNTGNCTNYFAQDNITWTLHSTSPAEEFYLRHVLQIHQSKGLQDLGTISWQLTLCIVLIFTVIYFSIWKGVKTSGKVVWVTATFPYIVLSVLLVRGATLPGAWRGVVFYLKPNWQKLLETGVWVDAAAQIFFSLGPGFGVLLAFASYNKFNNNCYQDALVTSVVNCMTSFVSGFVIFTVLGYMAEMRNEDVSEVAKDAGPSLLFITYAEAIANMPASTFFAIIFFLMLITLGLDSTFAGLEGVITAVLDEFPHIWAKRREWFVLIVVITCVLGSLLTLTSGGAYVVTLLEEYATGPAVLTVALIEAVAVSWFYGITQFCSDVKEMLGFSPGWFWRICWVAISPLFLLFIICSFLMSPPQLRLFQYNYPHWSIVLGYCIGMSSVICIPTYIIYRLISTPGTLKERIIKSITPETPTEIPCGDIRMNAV
Description: as §1, §2

[3] = synaptosomes, 3H-DA, read-out: DA-uptake IC50

Row | SMILES | melting point | IC50 [1] | IC50 [2] | IC50 [1, 3]
1 | CN1C2CCC1[C@H](COc1ccc(Cl)c(Cl)c1)CC2 (some centres unmarked) (as salt: fumarate) | 176 to 180 °C | – | – | –
2 | CN1C2CCC1[C@H](COc1ccc(Cl)c(Cl)c1)[C@@H](c1ccc(Cl)c(Cl)c1)C2 (stereo partly drawn) [Compound 15a, (2R,3S)-2-(3,4-Dichloro-phenoxymethyl)-3-(3,4-dichloro-phenyl)-8-methyl-8-aza-bicyclo[3.2.1]octane] | – | 15 nM | 20 nM | –
3 | CC(C)[C@@H]1CC2CCC([C@@H]1COc1ccc(Cl)c(Cl)c1)N2C (stereo partly drawn) (as salt: fumaric acid salt) [Compound 16, (2R,3S)-2-(3,4-Dichloro-phenoxymethyl)-3-(2-propyl)-8-methyl-8-aza-bicyclo[3.2.1]octane fumaric acid salt] | 152.3 to 154.5 °C | – | – | –
4 | CC(C)C1CC2CCC(N2)C1COc1ccc(Cl)c(Cl)c1 [Compound of Example 10, (2R,3S)-2-(3,4-Dichloro-phenoxymethyl)-3-(2-propyl)-8-H-8-aza-bicyclo[3.2.1]octane fumaric acid salt] | – | – | 9 nM | 260 nM
5 | CN1C2CCC1[C@H](COc1ccc(Cl)c(Cl)c1)[C@@H](c1ccccc1)C2 (stereo partly drawn) [Compound 13a, (2R,3S)-2-(3,4-Dichlorophenoxymethyl)-8-methyl-3-phenyl-8-aza-bicyclo[3.2.1]octane] | – | 540 nM | 0.4 nM | –
6 | CC(C)[C@@H]1CC2CCC([C@@H]1COc1ccc(Cl)c(Cl)c1)N2C (stereo partly drawn) [Compound 16, (2R,3S)-2-(3,4-Dichloro-phenoxymethyl)-3-(2-propyl)-8-methyl-8-aza-bicyclo[3.2.1]octane fumaric acid salt] | – | – | 0.72 nM | > 1000 nM
7 | CN1C2CCC1[C@H](COc1ccc(Cl)c(Cl)c1)[C@@H](c1ccc(Cl)c(Cl)c1)C2 (stereo partly drawn) (as salt: fumaric acid salt) [Compound 15a, (2R,3S)-2-(3,4-Dichloro-phenoxymethyl)-3-(3,4-dichloro-phenyl)-8-methyl-8-aza-bicyclo[3.2.1]octane] | 215.1 to 217.2 °C | – | – | –
